# Measured values reported in patent US6365628B1 (Thia Medica AS, priority 1998, dated 2002).
# How the values were obtained:
# Assay type in all cases: in vivo, rat
# [1] = system: Wistar Charles River rats; test: High fat diet induced hyperinsulinemia (Example 11); settings: HF diet supplemented with TTA, 21 days, overnight fast (FIG. 3)
# Description: (§1) Glucose (GLU, Boehringer Mannheim, Germany), free fatty acids (NEFA, C ACS-ACOD kit; Wako Chemicals, Dalton, USA) and b-hydroxybutyrate (310-A kit; Sigma Diagnostics Inc., St. Louis, USA) concentrations were measured using enzymatic methods. Insulin concentrations were determined with radioimmunoassay by (CIS bio International, Gif sur Yvette, France) using rat insulin as standard in the Zucker rats. In the Wistar Charles River rats, plasma glucose concentrations were measured with the aid of Beckman Glucose Analyzer (Fullerton, Calif., USA). Plasma insulin levels were measured using a RIA kit from Linco Research Inc. (St. Charles, Mo., USA). Phospholipids were measured by the enzymatic method of bioMérieux, Marcy-l {grave over ( )}Etoile, France, Triacylglycerol by the Technicon Method no. SA4-0324L90, USA and Cholesterol by the Technicon Method no. SA4-0305L90, USA.
# Rats weighing 280-360 g were divided into 3 groups (n=6) and fed with three different diets: standard rat chow, high fat diet (HF) and HF supplemented with TTA. After 21 days on their respective diets, blood was collected after an overnight fast from the tail vein. The data are shown as mean±SEM. Results were analysed by ANOVA and different letters denote statistical significance (p<0.05).
# male Wistar rats = test: Hepatic levels of triacylglycerol in rats fed fatty acid analogues (Example 17); settings: TTA 150 mg/kg/day for 6 days, no prefeeding
# Excerpt: Even an increased hepatic level of triacylglycerol may be relieved by TTA. Feeding rats with an inhibitor of fatty acid oxidation will increase the level of hepatic triacylglycerol resulting in fatty liver. Tetradecyl-4-thia propionic acid (TTP) is a fatty acid analogue with a sulphur atom in the 4 position. This analogue inhibits the β-oxidation of fatty acids due to the formation of a mitochondrial inhibitor. Feeding rats with this analogue results in the formation of fatty. However, if the rats are fed with a combination of TTA and TTP, the formation of fatty liver is avoided (Table 8). This provides evidence that TTA may be used for the treatment of conditions with an increased hepatic level of triacylglycerol. Male Wistar rats had free access to water and rat maintenance chow. They were fed palmitic acid or fatty acid analogues suspended in 0.5% CMC for 6 days. In some experiments TTA or TTP were fed for 3 days before feeding both for 6 days. At the end of the experiment the rats were fasted overnight, killed, the liver removed and homogenized. Triacylglycerol was measured in the homogenate.
# [2] = system: 5 weeks old Zucker (fa/fa) rats; test: Blood insulin and glucose in 5 weeks old Zucker (fa/fa) rats (Example 13); settings: 300 mg/kg/day oral gavage, 11 days (FIG. 5)
# Description: as §1
# The rats were administered TTA at a dose of 300 mg/kg/day suspended in 0.5% CMC (n=6) by oral gavage. Following 11 days of treatment, rats were killed by cervical dislocation. Blood was collected and the levels of insulin and glucose measured as indicated in the method section. Data are means±S.D.
# [3] = system: young obese Zucker (fa/fa) rats; test: Body weight gain, liver and adipose tissue weights in young obese Zucker rats (Example 9); settings: 5 week-old male obese Zucker (fa/fa) rats, TTA 300/kg/day in 0.5% CMC, 11 days, means ± SD
# Description: The obese Zucker (fa/fa) rats used in this study were bred at the U 465 INSERM animal facility from pairs originally provided by the Harriet G. Bird Laboratory (Stow, Mass., USA). Unless otherwise stated, the animals were maintained under a constant light-dark cycle (light from 7:00 a.m. to 7:00 p.m.) at 21±1° C. and were given free access to food and water. Three rats were housed per cage. Weight gains were recorded daily.
# 5 week-old male obese Zucker (fa/fa) rats fed with TTA, 300/kg/day suspended in 0.5% CMC. Control animals received CMC only. Following 11 days of treatment, rats were killed by cervical dislocation, liver and epididymal adipose tissue pads were dissected out and weighed. Data are means±SD of 6 animals in the control- and 6 animals in the experimental group.
# old obese Zucker rats = test: Plasma free fatty acids, ketone bodies and liver HMG-CoA synthase in old obese Zucker rats (Table 7); settings: 21 week-old male obese Zucker (fa/fa) rats, standard diet with 0.15% TTA for 15 days, means ± SD
# Description: as §1
# Freshly isolated livers from individual old Zucker rats, were homogenised in ice-cold sucrose buffer (0.25 M sucrose, 10 mM HEPES (pH 7.4) and 2 mM EDTA). Post-nuclear and mitochondrial fractions were prepared using preparative differential centrifugation according to DeDuve et al. (De Duve, C., et al., Biochem. J., 60, 604-617 1955.) Modifications, purity and yield were as described earlier (Garras, A., et al., Biochim. Biophys. Acta, 1255, 154-160 1995.). Acid soluble products were measured in post-nuclear and mitochondrial enriched fractions, using [1-^14C]-palmitoyl-CoA and [1-^14C]-palmitoyl-L-carnitine (Radiochemical Centre, Amersham, England) as substrates as described earlier (Willumsen, N., et al., J. Lipid Res., 34, 13-22 1993. Carnitine palmitoyltransferase-I and -II activities were measured in the post-nuclear and mitochondrial fractions essentially as described by Bremer (Bremer, J., Biochim. Biophys. Acta, 665, 628-631 1981.) and 3-hydroxy-3-methylglutharyl-CoA synthase was measured according to Clinkenbeard et al. (Clinkenbeard, K. D., et al., J. Biol. Chem, 250, 3108-3116 1975.) in the mitochondrial fractions.
# Data are means±SD of six animals in both the control- and the experimental group. Free fatty acids (FFA) and ketone bodies ([…]) were measured in plasma and 3-hydroxy-3-methylglutaryl (HMG) -CoA synthase activities were measured in mitochondrial fractions prepared from the liver from 21 week-old male obese Zucker (fa/fa) rats given either a standard diet (control) or a standard diet enriched with 0.15% TTA for 15 days.
# [4] = system: 5 weeks old Zucker (fa/fa) rats; test: Intravenous glucose tolerance test (IVGTT) (Example 15)
# Description: Male Zucker (fa/fa) rats (5 weeks old) were anaesthetised after a 5-hours fast, by intraperitoneal injection of sodium pentobarbital (50 mg/kg). The rats were injected with glucose (0.55 g/kg) in the saphenous vein and blood samples were collected from the tail vein in heparinized tubes at time 0, 5, 10, 15, 20 and 30 minutes after the glucose load. Samples were kept on ice, centrifuged and plasma was stored at −20° C. until analysis.
substance,measurement,setting,value
Tetradecylthioacetic acid [TTA],High fat diet-induced hyperinsulinemia,[1],prevents high fat diet-induced hyperinsulinemia
same,Hepatic triacylglycerol TG (μmol/g),male Wistar rats,"7,7 ± 2,9 μmol/g"
same,Reduction of blood concentration of glucose,[2],~15%
same,Reduction of blood insulin concentration,[2],~40%
same,Body weight gain,[3],6.23 ± 0.28 g/day
same,Epididymal adipose tissue/body weight (%),[3],0.78 ± 0.02%
same,HMG-CoA synthase activity (nmol/min/mg protein),old obese Zucker rats; liver mitochondrial fractions,27 ± 6 nmol/min/mg protein
same,4-OH butyrate,old obese Zucker rats; plasma,3.44 ± 1.37 mmol/L
same,FFA (mEq/L),old obese Zucker rats; plasma,0.53 ± 0.21 mEq/L
same,FFA/ketone ratio,old obese Zucker rats; plasma,0.17 ± 0.09
same,IVGTT glucose curves,[4]; TTA treated vs control (FIG. 7B),normal and comparable
same,Plasma insulin response to glucose (IVGTT),[4]; glucose 0.55 g/kg i.v. (FIG. 7A),significantly lower
